Measured values from ChEMBL document CHEMBL1938371, “Discovery of AZD2932, a new Quinazoline Ether Inhibitor with high affinity for VEGFR-2 and PDGFR tyrosine kinases” (Bioorg Med Chem Lett, 2012).
Each block holds one compound with its values, some of them ahead of it.

How the values were obtained:
[1] = Volume of distribution at steady state in dog at 2 mg/kg; type: ADME, organism-based, Canis lupus familiaris; design: dose 2 mg/kg; details: in vivo, read-out: Vdss
[2] = Half life in dog at 2 mg/kg, po; type: ADME, organism-based, Canis lupus familiaris; design: dose 2 mg/kg, route oral; details: in vivo
[3] = Clearance in dog at 2 mg/kg; type: ADME, organism-based, Canis lupus familiaris; design: dose 2 mg/kg; details: in vivo
[4] = Oral bioavailability in rat at 2 to 5 mg/kg; type: ADME, organism-based; details: in vivo
[5] = Volume of distribution at steady state in rat at 2 mg/kg; type: ADME, organism-based; design: dose 2 mg/kg; details: in vivo, read-out: Vdss
Calu-6 [6] = assay: Antitumor activity against human Calu6 cells xenografted in nude mouse assessed as tumor growth inhibition at 12.5 mg/kg bid; type: functional; details: read-out: TGI
Mus musculus [7] = assay: Inhibition of PDGFRbeta phosphorylation in C6 cells xenografted in nude mouse lungs at 3 to 50 mg/kg bid after 10 hrs by Western blot analysis; details: dose mg/kg 3-50
[8] = Terminal half life in dog at 2 mg/kg, iv; type: ADME, organism-based, Canis lupus familiaris; design: dose 2 mg/kg, route intravenous; details: in vivo, read-out: beta t1/2 (converted)
Canis familiaris = assay: Hepatic blood flow in dog at 0.5 to 2 mg/kg; type: ADME, organism-based, Canis lupus familiaris, Liver; design: dose 0.5-2 mg/kg; details: in vivo
Rattus norvegicus = assay: Hepatic blood flow in rat at 0.5 to 2 mg/kg; type: ADME, organism-based, Liver; design: dose 0.5-2 mg/kg; details: in vivo
[9] = Fraction unbound in human serum; type: ADME, cell-free
[10] = Clearance in rat at 2 mg/kg; type: ADME, organism-based; design: dose 2 mg/kg; details: in vivo
Cytochrome P450 2C9 = Cytochrome P450 2C9 (Homo sapiens, UniProt P11712); assay: Inhibition of CYP2C9; type: ADME
[11] = Half life in rat at 2 mg/kg, po; type: ADME, organism-based; design: dose 2 mg/kg, route oral; details: in vivo
[12] = Oral bioavailability in dog at 2 to 5 mg/kg; type: ADME, organism-based, Canis lupus familiaris; details: in vivo
C6 = assay: Antitumor activity against rat C6 cells xenografted in nude mouse assessed as tumor growth inhibition at 12.5 to 50 mg/kg bid for 22 days; type: functional; details: dose mg/kg 12.5-50
[13] = Fraction unbound in dog serum; type: ADME, cell-free, Canis lupus familiaris
[14] = Clearance in rat hepatocytes assessed per million cells; type: ADME, cell-based, Hepatocyte; details: read-out: CLH
Calu-6 [15] = assay: Antitumor activity against human Calu6 cells xenografted in nude mouse assessed as tumor growth inhibition at 50 mg/kg bid; type: functional; details: read-out: TGI
[16] = target: Voltage-gated inwardly rectifying potassium channel KCNH2 (Homo sapiens, UniProt Q12809); assay: Inhibition of human ERG
Mus musculus [17] = assay: Inhibition of VEGFR2 phosphorylation in C6 cells xenografted in nude mouse lungs at 3 to 50 mg/kg bid after 10 hrs by Western blot analysis; type: functional; details: dose mg/kg 3-50
[18] = Terminal half life in rat at 2 mg/kg, iv; type: ADME, organism-based; design: dose 2 mg/kg, route intravenous; details: in vivo, read-out: beta t1/2 (converted)
LoVo = assay: Antitumor activity against human LoVo cells xenografted in nude mouse assessed as tumor growth inhibition at 50 mg/kg bid for 22 days; type: functional; details: 528 h, read-out: TGI
[19] = Terminal half life in dog at 3 mg/kg, iv; type: ADME, organism-based, Canis lupus familiaris; design: dose 3 mg/kg, route intravenous; details: in vivo, read-out: beta t1/2 (converted)
[20] = Oral bioavailability in dog at 10 mg/kg; type: ADME, organism-based, Canis lupus familiaris; details: in vivo
[21] = Clearance in dog at 3 mg/kg, iv; type: ADME, organism-based, Canis lupus familiaris; design: dose 3 mg/kg, route intravenous; details: in vivo
[22] = Half life in dog at 2.7 mg/kg, po; type: ADME, organism-based, Canis lupus familiaris; design: dose 2.7 mg/kg, route oral; details: in vivo
[23] = Volume of distribution at steady state in dog at 3 mg/kg, iv; type: ADME, organism-based, Canis lupus familiaris; design: dose 3 mg/kg, route intravenous; details: in vivo, read-out: Vdss
[24] = Half life in dog at 3 mg/kg, po; type: ADME, organism-based, Canis lupus familiaris; design: dose 3 mg/kg, route oral; details: in vivo
[25] = Oral bioavailability in rat at 2.7 mg/kg; type: ADME, organism-based; details: in vivo
[26] = Clearance in dog at 10 mg/kg, po; type: ADME, organism-based, Canis lupus familiaris; design: dose 10 mg/kg, route oral; details: in vivo

Chain of Cytochrome P450 2C9 (P11712 whole entry): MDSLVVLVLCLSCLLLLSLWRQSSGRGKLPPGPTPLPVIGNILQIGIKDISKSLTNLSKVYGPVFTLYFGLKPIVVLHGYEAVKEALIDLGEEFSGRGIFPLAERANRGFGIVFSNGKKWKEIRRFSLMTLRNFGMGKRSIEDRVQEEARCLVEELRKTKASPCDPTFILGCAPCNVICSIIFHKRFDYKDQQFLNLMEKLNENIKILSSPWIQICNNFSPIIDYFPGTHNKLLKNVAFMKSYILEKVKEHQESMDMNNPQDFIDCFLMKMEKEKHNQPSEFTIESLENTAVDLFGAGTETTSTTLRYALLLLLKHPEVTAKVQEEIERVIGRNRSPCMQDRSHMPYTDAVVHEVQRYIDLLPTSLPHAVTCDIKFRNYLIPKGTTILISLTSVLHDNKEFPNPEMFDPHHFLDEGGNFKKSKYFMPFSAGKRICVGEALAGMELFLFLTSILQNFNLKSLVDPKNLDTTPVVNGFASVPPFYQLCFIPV
Chain of Voltage-gated inwardly rectifying potassium channel KCNH2 (Q12809 whole entry): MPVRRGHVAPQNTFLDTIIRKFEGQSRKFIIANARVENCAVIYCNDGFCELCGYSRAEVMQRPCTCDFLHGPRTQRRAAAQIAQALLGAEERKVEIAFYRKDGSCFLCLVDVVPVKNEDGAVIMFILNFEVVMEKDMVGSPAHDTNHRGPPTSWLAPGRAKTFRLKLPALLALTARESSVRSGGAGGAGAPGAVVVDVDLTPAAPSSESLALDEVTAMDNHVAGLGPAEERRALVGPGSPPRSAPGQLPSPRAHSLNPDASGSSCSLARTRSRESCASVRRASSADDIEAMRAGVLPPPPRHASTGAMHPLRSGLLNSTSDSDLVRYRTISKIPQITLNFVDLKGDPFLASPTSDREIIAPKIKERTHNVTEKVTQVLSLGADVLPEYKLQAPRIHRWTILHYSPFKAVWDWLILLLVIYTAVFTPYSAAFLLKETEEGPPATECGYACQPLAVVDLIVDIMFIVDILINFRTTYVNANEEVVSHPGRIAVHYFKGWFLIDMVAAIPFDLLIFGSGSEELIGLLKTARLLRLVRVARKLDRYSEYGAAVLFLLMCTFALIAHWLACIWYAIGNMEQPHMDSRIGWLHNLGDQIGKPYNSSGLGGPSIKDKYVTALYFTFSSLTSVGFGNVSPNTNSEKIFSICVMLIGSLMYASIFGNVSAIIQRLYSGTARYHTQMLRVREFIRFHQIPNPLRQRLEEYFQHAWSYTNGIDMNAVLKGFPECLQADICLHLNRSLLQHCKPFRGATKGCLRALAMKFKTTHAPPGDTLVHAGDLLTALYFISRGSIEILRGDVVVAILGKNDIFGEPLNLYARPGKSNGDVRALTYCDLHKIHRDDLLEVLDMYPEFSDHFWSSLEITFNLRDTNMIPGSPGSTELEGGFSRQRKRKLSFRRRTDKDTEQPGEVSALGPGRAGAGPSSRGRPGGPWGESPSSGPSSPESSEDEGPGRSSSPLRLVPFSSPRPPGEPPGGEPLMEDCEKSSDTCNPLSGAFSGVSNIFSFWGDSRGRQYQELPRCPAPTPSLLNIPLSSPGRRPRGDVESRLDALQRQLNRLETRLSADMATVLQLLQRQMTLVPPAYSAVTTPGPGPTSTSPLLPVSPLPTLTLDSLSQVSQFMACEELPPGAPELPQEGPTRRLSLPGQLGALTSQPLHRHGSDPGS

Vd [1]: 0.9 L/kg | half-life [2]: 6.8 h | clearance [3]: 3.3 mL/min/kg | bioavailability [4]: 34% | Vd [5]: 0.8 L/kg | half-life [8]: 4.2 h | QH (Canis familiaris): 9% | QH (Rattus norvegicus): 6% | fraction unbound [9]: 0.033 | clearance [10]: 8.9 mL/min/kg | IC50 (Cytochrome P450 2C9): 8 µM | half-life [11]: 6 h | bioavailability [12]: 23% | fraction unbound [13]: 0.07 | hepatocyte CLint [14]: 3.5 µL/min/1e6 cells | half-life [18]: 1.3 h
Compound: COc1cc2ncnc(Oc3ccc(CC(=O)Nc4cnn(C(C)C)c4)cc3)c2cc1OC
inhibition in vivo at 12.5 mg/kg (Calu-6 [6]): 72% | inhibition (INH) (Mus musculus [7]): 60% | TGI (C6): 64% | inhibition in vivo at 50 mg/kg (Calu-6 [15]): 81% | IC50 [16]: 137 µM | inhibition (INH) (Mus musculus [17]): 60% | inhibition in vivo at 50 mg/kg (LoVo): 67%

half-life [19]: 4.7 h | bioavailability [20]: > 90% | clearance [21]: 1.7 mL/min/kg | half-life [22]: 4.3 h | Vd [23]: 0.7 L/kg | half-life [24]: 6.8 h | bioavailability [25]: > 90% | CL/F [26]: 5.2 mL/min/kg
Compound: COc1cc2ncnc(Oc3ccc(CC(=O)Nc4cnn(C(C)C)c4)cc3)c2cc1OC.O=P(O)(O)O
